The target of data set [1] is Multidrug resistance protein 1a (Rattus norvegicus) (UniProt Q6PSM0). The data set is described as follows: TP_TRANSPORTER: Western in vitro, nonparenchymal ral liver epithelial cells. It is filed as functional, tissue-based. To be noted: Epithelial cell.
Data set [2] has as its target ATP-dependent translocase ABCB1 (Rattus norvegicus, UniProt P43245). The data set can be described thus: TP_TRANSPORTER: Northern blot in vitro, nonparenchymal ral liver epithelial cells. Format: functional. To be noted: epithelial cell.

Sequence of ATP-dependent translocase ABCB1 (P43245 whole entry): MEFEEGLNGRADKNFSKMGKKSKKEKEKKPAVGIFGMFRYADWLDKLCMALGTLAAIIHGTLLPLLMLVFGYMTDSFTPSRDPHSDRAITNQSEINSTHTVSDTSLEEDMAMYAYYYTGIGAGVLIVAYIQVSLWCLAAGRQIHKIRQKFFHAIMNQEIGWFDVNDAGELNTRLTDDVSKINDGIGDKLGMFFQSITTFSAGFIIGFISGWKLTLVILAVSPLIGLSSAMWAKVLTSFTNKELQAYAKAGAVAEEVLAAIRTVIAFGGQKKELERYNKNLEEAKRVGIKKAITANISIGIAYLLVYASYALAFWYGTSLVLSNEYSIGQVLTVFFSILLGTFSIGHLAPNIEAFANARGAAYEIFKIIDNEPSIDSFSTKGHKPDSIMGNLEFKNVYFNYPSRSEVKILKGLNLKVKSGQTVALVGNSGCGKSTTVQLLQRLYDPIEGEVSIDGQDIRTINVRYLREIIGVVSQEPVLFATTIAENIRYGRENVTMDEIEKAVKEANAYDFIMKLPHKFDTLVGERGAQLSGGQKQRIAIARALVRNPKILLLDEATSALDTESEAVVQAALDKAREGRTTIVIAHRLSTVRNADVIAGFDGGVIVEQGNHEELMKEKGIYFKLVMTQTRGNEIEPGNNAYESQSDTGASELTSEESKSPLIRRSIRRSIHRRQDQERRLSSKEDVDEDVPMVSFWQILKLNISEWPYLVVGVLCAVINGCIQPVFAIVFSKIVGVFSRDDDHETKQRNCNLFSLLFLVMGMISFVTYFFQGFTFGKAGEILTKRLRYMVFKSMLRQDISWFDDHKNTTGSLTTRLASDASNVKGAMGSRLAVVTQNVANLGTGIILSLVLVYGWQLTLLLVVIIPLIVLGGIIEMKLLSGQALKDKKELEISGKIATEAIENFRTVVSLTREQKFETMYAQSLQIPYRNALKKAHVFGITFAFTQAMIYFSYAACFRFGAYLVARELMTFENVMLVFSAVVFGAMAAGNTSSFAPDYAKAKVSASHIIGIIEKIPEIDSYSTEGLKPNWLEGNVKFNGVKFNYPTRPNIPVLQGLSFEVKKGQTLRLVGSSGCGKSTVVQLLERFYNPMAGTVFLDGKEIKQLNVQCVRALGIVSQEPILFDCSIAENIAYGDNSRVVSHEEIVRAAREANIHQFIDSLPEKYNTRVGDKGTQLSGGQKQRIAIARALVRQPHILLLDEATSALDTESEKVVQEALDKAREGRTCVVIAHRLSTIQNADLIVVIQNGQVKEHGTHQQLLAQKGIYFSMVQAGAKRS
Sequence of Multidrug resistance protein 1a (Rattus norvegicus) (Q6PSM0 as listed by the source): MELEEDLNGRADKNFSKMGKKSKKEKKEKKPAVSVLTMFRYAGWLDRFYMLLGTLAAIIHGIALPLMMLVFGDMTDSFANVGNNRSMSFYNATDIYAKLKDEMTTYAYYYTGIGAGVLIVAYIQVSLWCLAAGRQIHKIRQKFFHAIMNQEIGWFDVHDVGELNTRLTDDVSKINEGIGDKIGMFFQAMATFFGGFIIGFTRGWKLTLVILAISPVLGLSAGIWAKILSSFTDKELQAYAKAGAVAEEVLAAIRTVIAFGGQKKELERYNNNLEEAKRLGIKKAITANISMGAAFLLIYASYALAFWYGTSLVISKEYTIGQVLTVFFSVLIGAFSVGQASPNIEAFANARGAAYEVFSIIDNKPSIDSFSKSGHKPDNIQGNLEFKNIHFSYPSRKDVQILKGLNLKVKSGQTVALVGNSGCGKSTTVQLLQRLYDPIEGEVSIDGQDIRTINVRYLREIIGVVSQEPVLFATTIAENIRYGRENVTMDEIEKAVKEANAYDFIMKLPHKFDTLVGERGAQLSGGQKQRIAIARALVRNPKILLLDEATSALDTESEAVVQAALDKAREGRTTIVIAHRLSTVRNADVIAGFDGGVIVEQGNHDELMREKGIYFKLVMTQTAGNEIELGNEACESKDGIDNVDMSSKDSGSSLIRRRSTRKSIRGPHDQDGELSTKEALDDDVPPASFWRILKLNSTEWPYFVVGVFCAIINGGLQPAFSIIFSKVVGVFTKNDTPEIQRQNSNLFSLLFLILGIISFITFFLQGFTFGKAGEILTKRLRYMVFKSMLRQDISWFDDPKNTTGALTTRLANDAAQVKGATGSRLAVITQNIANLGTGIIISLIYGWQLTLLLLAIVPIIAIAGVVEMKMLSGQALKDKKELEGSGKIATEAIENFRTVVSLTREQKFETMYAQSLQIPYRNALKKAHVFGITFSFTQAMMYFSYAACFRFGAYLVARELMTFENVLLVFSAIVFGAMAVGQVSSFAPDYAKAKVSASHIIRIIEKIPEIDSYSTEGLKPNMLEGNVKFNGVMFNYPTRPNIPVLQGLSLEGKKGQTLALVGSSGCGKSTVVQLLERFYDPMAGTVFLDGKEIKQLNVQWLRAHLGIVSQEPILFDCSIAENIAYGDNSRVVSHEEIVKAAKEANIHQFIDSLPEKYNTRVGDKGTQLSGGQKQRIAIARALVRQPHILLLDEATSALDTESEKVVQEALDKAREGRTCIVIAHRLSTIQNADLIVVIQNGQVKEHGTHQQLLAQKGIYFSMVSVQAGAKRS

As for `COc1cccc2c1C(=O)c1c(O)c3c(c(O)c1C2=O)C[C@@](O)(C(=O)CO)C[C@@H]3O[C@H]1C[C@H](N)[C@H](O)[C@H](C)O1` [DOXORUBICIN], the Activity entry in data set [1] and in data set [2] was “inducer [+]” each time.

The values are drawn from ChEMBL document CHEMBL2074045, “Up-regulation of P-glycoprotein expression in rat liver cells by acute doxorubicin treatment” (Eur J Biochem, 1997).
